# In PubChem BioAssay (NCI):
#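 Assay format: 96-well plates, 48-hour exposure. TGI marks complete inhibition of growth.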
# Experiments:
# Test in all cases: DTP human tumour cell line panel, 48 h
# 786-0 renal = test system: 786-0 renal
# A498 renal = test system: A498 renal
# A549 NSCLC = test system: A549 NSCLC
# ACHN renal = test system: ACHN renal
# BT-549 breast = test system: BT-549 breast
# CAKI-1 renal = test system: CAKI-1 renal
# CCRF-CEM leukemia = test system: CCRF-CEM leukemia
# COLO 205 colon = test system: COLO 205 colon
# DU-145 prostate = test system: DU-145 prostate
# EKVX NSCLC = test system: EKVX NSCLC
# HCC-2998 colon = test system: HCC-2998 colon
# HCT-116 colon = test system: HCT-116 colon
# HCT-15 colon = test system: HCT-15 colon
# HL-60(TB) leukemia = test system: HL-60(TB) leukemia
# HOP-62 NSCLC = test system: HOP-62 NSCLC
# HOP-92 NSCLC = test system: HOP-92 NSCLC
# HS 578T breast = test system: HS 578T breast
# HT29 colon = test system: HT29 colon
# IGROV1 ovarian = test system: IGROV1 ovarian
# K-562 leukemia = test system: K-562 leukemia
# KM12 colon = test system: KM12 colon
# LOX IMVI melanoma = test system: LOX IMVI melanoma
# MCF7 breast = test system: MCF7 breast
# MDA-MB-231 breast = test system: MDA-MB-231 breast
# MDA-MB-435 = test system: MDA-MB-435
# MDA-N = test system: MDA-N
# MOLT-4 leukemia = test system: MOLT-4 leukemia
# NCI-H226 lung = test system: NCI-H226 lung
# NCI-H23 lung = test system: NCI-H23 lung
# NCI-H460 lung = test system: NCI-H460 lung
# NCI-H522 lung = test system: NCI-H522 lung
# NCI/ADR-RES ovarian = test system: NCI/ADR-RES ovarian
# OVCAR-3 ovarian = test system: OVCAR-3 ovarian
# OVCAR-4 ovarian = test system: OVCAR-4 ovarian
# OVCAR-5 ovarian = test system: OVCAR-5 ovarian
# OVCAR-8 ovarian = test system: OVCAR-8 ovarian
# PC-3 prostate = test system: PC-3 prostate
# RPMI-8226 leukemia = test system: RPMI-8226 leukemia
# SF-268 CNS = test system: SF-268 CNS
# SF-295 CNS = test system: SF-295 CNS
# SF-539 CNS = test system: SF-539 CNS
# SK-MEL-2 melanoma = test system: SK-MEL-2 melanoma
# SK-MEL-28 melanoma = test system: SK-MEL-28 melanoma
# SK-MEL-5 melanoma = test system: SK-MEL-5 melanoma
# SK-OV-3 ovarian = test system: SK-OV-3 ovarian
# SN12C renal = test system: SN12C renal
# SNB-19 CNS = test system: SNB-19 CNS
# SNB-75 CNS = test system: SNB-75 CNS
# SR leukemia = test system: SR leukemia
# SW-620 colon = test system: SW-620 colon
# T-47D breast = test system: T-47D breast
# TK-10 renal = test system: TK-10 renal
# U251 CNS = test system: U251 CNS
# UACC-257 melanoma = test system: UACC-257 melanoma
# UACC-62 melanoma = test system: UACC-62 melanoma
# UO-31 renal = test system: UO-31 renal
# M14 melanoma = test system: M14 melanoma
# MALME-3M melanoma = test system: MALME-3M melanoma
# RXF 393 renal = test system: RXF 393 renal
smiles,measurement,setting,value
COC(=O)CN(CC(=O)NCCCBr)C1CCCCC1N(CC(=O)OC)CC(=O)OC (stereo not drawn),TGI,786-0 renal,> 100 µM
same,TGI,A498 renal,> 100 µM
same,TGI,A549 NSCLC,> 100 µM
same,TGI,ACHN renal,> 100 µM
same,TGI,BT-549 breast,> 100 µM
same,TGI,CAKI-1 renal,> 100 µM
same,TGI,CCRF-CEM leukemia,> 100 µM
same,TGI,COLO 205 colon,> 100 µM
same,TGI,DU-145 prostate,> 100 µM
same,TGI,EKVX NSCLC,> 100 µM
same,TGI,HCC-2998 colon,> 100 µM
same,TGI,HCT-116 colon,> 100 µM
same,TGI,HCT-15 colon,> 100 µM
same,TGI,HL-60(TB) leukemia,> 100 µM
same,TGI,HOP-62 NSCLC,> 100 µM
same,TGI,HOP-92 NSCLC,> 100 µM
same,TGI,HS 578T breast,> 100 µM
same,TGI,HT29 colon,> 100 µM
same,TGI,IGROV1 ovarian,> 100 µM
same,TGI,K-562 leukemia,> 100 µM
same,TGI,KM12 colon,> 100 µM
same,TGI,LOX IMVI melanoma,> 100 µM
same,TGI,MCF7 breast,> 100 µM
same,TGI,MDA-MB-231 breast,> 100 µM
same,TGI,MDA-MB-435,> 100 µM
same,TGI,MDA-N,> 100 µM
same,TGI,MOLT-4 leukemia,> 100 µM
same,TGI,NCI-H226 lung,> 100 µM
same,TGI,NCI-H23 lung,> 100 µM
same,TGI,NCI-H460 lung,> 100 µM
same,TGI,NCI-H522 lung,> 100 µM
same,TGI,NCI/ADR-RES ovarian,> 100 µM
same,TGI,OVCAR-3 ovarian,> 100 µM
same,TGI,OVCAR-4 ovarian,> 100 µM
same,TGI,OVCAR-5 ovarian,> 100 µM
same,TGI,OVCAR-8 ovarian,> 100 µM
same,TGI,PC-3 prostate,> 100 µM
same,TGI,RPMI-8226 leukemia,> 100 µM
same,TGI,SF-268 CNS,> 100 µM
same,TGI,SF-295 CNS,> 100 µM
same,TGI,SF-539 CNS,> 100 µM
same,TGI,SK-MEL-2 melanoma,> 100 µM
same,TGI,SK-MEL-28 melanoma,> 100 µM
same,TGI,SK-MEL-5 melanoma,> 100 µM
same,TGI,SK-OV-3 ovarian,> 100 µM
same,TGI,SN12C renal,> 100 µM
same,TGI,SNB-19 CNS,> 100 µM
same,TGI,SNB-75 CNS,64.9 µM
same,TGI,SR leukemia,> 100 µM
same,TGI,SW-620 colon,> 100 µM
same,TGI,T-47D breast,> 100 µM
same,TGI,TK-10 renal,> 100 µM
same,TGI,U251 CNS,> 100 µM
same,TGI,UACC-257 melanoma,> 100 µM
same,TGI,UACC-62 melanoma,> 100 µM
same,TGI,UO-31 renal,> 100 µM
O=C1CC(/C=C/c2ccco2)=C(O)C1=O,TGI,A549 NSCLC,62.8 µM
same,TGI,ACHN renal,34.3 µM
same,TGI,BT-549 breast,23.6 µM
same,TGI,CAKI-1 renal,34.6 µM
same,TGI,CCRF-CEM leukemia,8.68 µM
same,TGI,COLO 205 colon,29.2 µM
same,TGI,DU-145 prostate,32.5 µM
same,TGI,EKVX NSCLC,37.6 µM
same,TGI,HCC-2998 colon,31.9 µM
same,TGI,HCT-116 colon,30.4 µM
same,TGI,HCT-15 colon,31.9 µM
same,TGI,HL-60(TB) leukemia,57.1 µM
same,TGI,HOP-62 NSCLC,9.07 µM
same,TGI,HOP-92 NSCLC,28.4 µM
same,TGI,HS 578T breast,87.9 µM
same,TGI,HT29 colon,30.4 µM
same,TGI,IGROV1 ovarian,24.5 µM
same,TGI,K-562 leukemia,49 µM
same,TGI,KM12 colon,27.6 µM
same,TGI,LOX IMVI melanoma,25.4 µM
same,TGI,M14 melanoma,29.2 µM
same,TGI,MALME-3M melanoma,23.9 µM
same,TGI,MCF7 breast,21.4 µM
same,TGI,MDA-MB-231 breast,35.2 µM
same,TGI,MDA-MB-435,35.3 µM
same,TGI,MDA-N,29.7 µM
same,TGI,MOLT-4 leukemia,60.8 µM
same,TGI,NCI-H226 lung,69.1 µM
same,TGI,NCI-H23 lung,27.2 µM
same,TGI,NCI-H460 lung,35.6 µM
same,TGI,NCI-H522 lung,31.7 µM
same,TGI,NCI/ADR-RES ovarian,> 100 µM
same,TGI,OVCAR-3 ovarian,27.1 µM
same,TGI,OVCAR-4 ovarian,27.3 µM
same,TGI,OVCAR-5 ovarian,30.1 µM
same,TGI,OVCAR-8 ovarian,30 µM
same,TGI,PC-3 prostate,25.4 µM
same,TGI,RPMI-8226 leukemia,40.2 µM
same,TGI,RXF 393 renal,21.7 µM
same,TGI,SF-268 CNS,75 µM
same,TGI,SF-295 CNS,40.9 µM
same,TGI,SF-539 CNS,31.1 µM
same,TGI,SK-MEL-2 melanoma,35.1 µM
same,TGI,SK-MEL-28 melanoma,48.3 µM
same,TGI,SK-MEL-5 melanoma,26.5 µM
same,TGI,SK-OV-3 ovarian,54.5 µM
same,TGI,SN12C renal,27.7 µM
same,TGI,SNB-19 CNS,30.9 µM
same,TGI,SNB-75 CNS,32.9 µM
same,TGI,SR leukemia,37.2 µM
same,TGI,SW-620 colon,31.6 µM
same,TGI,T-47D breast,35.8 µM
same,TGI,TK-10 renal,44.2 µM
same,TGI,U251 CNS,28.6 µM
same,TGI,UACC-257 melanoma,33.2 µM
same,TGI,UACC-62 melanoma,30.1 µM
same,TGI,UO-31 renal,61.3 µM
